In publication PMC3189207, “DomPep—A General Method for Predicting Modular Domain-Mediated Protein-Protein Interactions” (PLoS ONE, 2011):
Residues, ends and D or L forms follow the SMILES beside them.

Key:
Scrib PDZ-2 domain = target: T1, Scrib PDZ-2 domain (Homo sapiens, UniProt Q14160); test: In-solution fluorescence polarization binding of peptides to Scrib PDZ2; conditions: Kd value of 100 µM applied as binding cutoff, NB without definition, read-out: Kd (µM) PDZ2
T1 construct: ROC curves of DomPep prediction for the three Scrib PDZ-1/2/3 domains
T1 sequence (Q14160 862-950 limits assumed): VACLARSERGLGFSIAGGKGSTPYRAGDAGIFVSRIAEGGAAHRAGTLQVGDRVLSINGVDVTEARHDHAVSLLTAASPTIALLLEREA

Scrib PDZ-1 domain = target: T2, Scrib PDZ-1 domain (Homo sapiens, UniProt Q14160); test: In-solution fluorescence polarization binding of peptides to Scrib PDZ1; conditions: Kd value of 100 µM applied as binding cutoff, NB without definition, read-out: Kd (µM) PDZ1
T2 construct: ROC curves of DomPep prediction for the three Scrib PDZ-1/2/3 domains

Scrib PDZ-3 domain = target: T3, Scrib PDZ-3 domain (Homo sapiens, UniProt Q14160); test: In-solution fluorescence polarization binding of peptides to Scrib PDZ3; conditions: Kd value of 100 µM applied as binding cutoff, NB without definition
T3 construct: ROC curves of DomPep prediction for the three Scrib PDZ-1/2/3 domains
T3 sequence (Q14160 1004-1093 limits assumed): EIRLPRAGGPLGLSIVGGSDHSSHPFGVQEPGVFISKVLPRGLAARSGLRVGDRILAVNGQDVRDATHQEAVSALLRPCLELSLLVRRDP
Excerpt: Because DomPep compared favorably to MDSM in identifying ligands for a PDZ domain included in the training set and to SPSSM in identifying binding peptides for an untrained PDZ domain, we next tested it whether it could reliably PPIs mediated by a PDZ domain on the genome scale. To this end, we employed three DomPep models to predict interactions between the Scrib PDZ domains and human proteins from the Swiss-Prot protein database. The three prediction models, which were generated for the mouse Scrib PDZ-1, PDZ-2 and PDZ-3 domains, were trained with 6, 5 and 30 positive peptide, respectively (Table S1). Searching the protein database with these models yielded a list of potential PDZ ligands. […] This experiment identified 14, 14, and 38 positives for the PDZ-1, -2, and -3 domains, respectively (Table 1). […] Importantly, we identified four peptides that were not included in the training set as physiological binders to the Scrib PDZ domains. The corresponding proteins, namely APC, LPP, VANGL2 and ZO2, were previously reported to interact with Scrib in vivo via its PDZ domains, [36], [37], [38], [39].
Figure 4 Application of DomPep to the prediction of PDZ-binding ligands. ROC curves of DomPep prediction for the three Scrib PDZ-1/2/3 domains using 56 peptides selected from the human protein database as the test set. The respective affinities of the three domains for the 56 peptides were measured by fluorescence polarization (Table 1).

T2 sequence (Q14160 728-815 limits assumed): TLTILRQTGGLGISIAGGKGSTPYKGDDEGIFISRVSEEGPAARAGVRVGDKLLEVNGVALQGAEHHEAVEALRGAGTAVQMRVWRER

SMILES	Kd (Scrib PDZ-2 domain) [µM]	Kd (Scrib PDZ-1 domain) [µM]	Kd (Scrib PDZ-3 domain) [µM]
CC(C)[C@H](NC(=O)[C@H](CO)NC(=O)[C@@H](NC(=O)[C@@H](NC(=O)CNC(=O)[C@H](CCC(=O)O)NC(=O)[C@H](C)NC(=O)[C@H](CCCNC(=N)N)NC(=O)[C@H](CCC(=O)O)NC(=O)[C@@H](N)CS)[C@@H](C)O)C(C)C)C(=O)O [MUSK] (H-CERAEGTVSV-OH)	> 100	> 100	143
CC(C)[C@H](NC(=O)[C@H](CO)NC(=O)[C@H](CCCCN)NC(=O)[C@H](CCCCN)NC(=O)[C@H](CO)NC(=O)[C@H](CCCCN)NC(=O)[C@H](CCCCN)NC(=O)[C@H](CCCCN)NC(=O)[C@H](CCC(=O)O)NC(=O)[C@H](C)N)C(=O)O [PSMA8] (H-AEKKKSKKSV-OH)	> 100	> 100	177
CC(C)C[C@H](NC(=O)[C@@H](N)C(C)C)C(=O)N[C@@H](CCC(N)=O)C(=O)N[C@@H](CCCNC(=N)N)C(=O)N[C@@H](Cc1c[nH]cn1)C(=O)N[C@H](C(=O)N[C@H](C(=O)NCC(=O)N[C@@H](CCCCN)C(=O)N[C@@H](C)C(=O)O)[C@@H](C)O)[C@@H](C)O [ACBD6] (H-VLQRHTTGKA-OH; N-terminus and C-terminus assumed)	> 100	> 100	> 100
CC(C)C[C@H](NC(=O)[C@@H](NC(=O)[C@H](CCCCN)NC(=O)[C@H](CC(C)C)NC(=O)[C@H](Cc1ccccc1)NC(=O)[C@H](CCCCN)NC(=O)[C@H](CCC(=O)O)NC(=O)[C@H](Cc1ccccc1)NC(=O)[C@H](CC(=O)O)NC(=O)[C@@H](N)CCC(N)=O)[C@@H](C)O)C(=O)O [MTERFD1] (H-QDFEKFLKTL-OH; N-terminus and C-terminus assumed)	> 100	> 100	> 100
CC(C)C[C@H](NC(=O)[C@H](CCC(=O)O)NC(=O)[C@H](CCC(=O)O)NC(=O)[C@H](CCCNC(=N)N)NC(=O)[C@@H](NC(=O)[C@H](C)NC(=O)[C@H](CO)NC(=O)[C@@H](NC(=O)[C@H](CCCCN)NC(=O)[C@@H](N)CCC(=O)O)C(C)C)[C@@H](C)O)C(=O)O (H-EKVSATREEL-OH)	> 100	> 100	88.1
CC(C)C[C@H](NC(=O)[C@H](C)NC(=O)[C@@H](NC(=O)[C@H](CO)NC(=O)[C@@H](N)CO)[C@@H](C)O)C(=O)N[C@@H](Cc1c[nH]cn1)C(=O)N[C@@H](CCC(N)=O)C(=O)N[C@@H](Cc1c[nH]cn1)C(=O)N[C@@H](Cc1c[nH]cn1)C(=O)N[C@@H](Cc1ccccc1)C(=O)O [LIMD1] (H-SSTALHQHHF-OH; N-terminus and C-terminus assumed)	> 100	> 100	> 100
CSCC[C@H](NC(=O)[C@H](CCCNC(=N)N)NC(=O)[C@H](CCCCN)NC(=O)[C@H](CCC(=O)O)NC(=O)[C@H](C)NC(=O)[C@@H](N)Cc1ccc(O)cc1)C(=O)N[C@@H](CC(C)C)C(=O)N[C@H](C(=O)N[C@@H](CCC(=O)O)C(=O)N[C@H](C(=O)O)C(C)C)[C@@H](C)O [KCNA6] (H-YAEKRMLTEV-OH)	> 100	> 100	–
CC(C)C[C@H](NC(=O)[C@@H](N)C(C)C)C(=O)N[C@@H](Cc1ccc(O)cc1)C(=O)N1CCC[C@H]1C(=O)N[C@@H](CCCNC(=N)N)C(=O)N[C@@H](CCC(=O)O)C(=O)NCC(=O)N[C@H](C(=O)N[C@@H](CCC(=O)O)C(=O)N[C@H](C(=O)O)C(C)C)[C@@H](C)O [FOXl1] (H-VLYPREGTEV-OH)	24.7	> 100	–
CSCC[C@H](N)C(=O)N[C@@H](CCC(=O)O)C(=O)N[C@@H](CCCNC(=N)N)C(=O)N[C@@H](CC(C)C)C(=O)N[C@@H](CCCNC(=N)N)C(=O)N[C@H](C(=O)N[C@@H](CCC(=O)O)C(=O)N[C@H](C(=O)N[C@@H](CC(=O)O)C(=O)N[C@H](C(=O)O)C(C)C)[C@@H](C)O)C(C)C [ARHGEF16] (H-MERLRVETDV-OH)	7.7	27.5	–
CC(C)C[C@H](NC(=O)[C@@H](NC(=O)[C@H](CC(N)=O)NC(=O)[C@@H](N)CCCNC(=N)N)[C@@H](C)O)C(=O)N[C@@H](Cc1ccc(O)cc1)C(=O)N[C@@H](Cc1ccccc1)C(=O)N[C@@H](CO)C(=O)N[C@H](C(=O)N[C@@H](CC(=O)O)C(=O)N[C@H](C(=O)O)C(C)C)[C@@H](C)O [ABR] (H-RNTLYFSTDV-OH)	10.4	12.5	–
CC[C@H](C)[C@H](NC(=O)[C@H](CCCNC(=N)N)NC(=O)[C@@H](NC(=O)[C@H](CO)NC(=O)[C@H](CC(C)C)NC(=O)[C@H](C)NC(=O)[C@@H](N)CO)C(C)C)C(=O)N[C@@H](CO)C(=O)N[C@@H](CC(N)=O)C(=O)N[C@H](C(=O)O)C(C)C [KCNJ10] (H-SALSVRISNV-OH)	> 100	> 100	–
CC[C@H](C)[C@H](N)C(=O)N[C@@H](CC(C)C)C(=O)N[C@@H](CCCNC(=N)N)C(=O)N[C@@H](CCCCN)C(=O)N[C@@H](CO)C(=O)N[C@H](C(=O)N[C@H](C(=O)N[C@H](C(=O)N[C@H](C(=O)N[C@H](C(=O)O)C(C)C)[C@@H](C)O)[C@@H](C)O)[C@@H](C)O)[C@@H](C)O [DSC54] (H-ILRKSTTTTV-OH)	> 100	> 100	–

Now from value to compound:

Kd (Scrib PDZ-2 domain) [µM]	Kd (Scrib PDZ-1 domain) [µM]	Kd (Scrib PDZ-3 domain) [µM]	SMILES
> 100	> 100	> 100	CC(C)C[C@H](NC(=O)[C@H](CCCCN)NC(=O)[C@H](CO)NC(=O)[C@H](CC(N)=O)NC(=O)[C@@H](NC(=O)[C@H](CO)NC(=O)[C@H](Cc1c[nH]cn1)NC(=O)[C@@H]1CCCN1C(=O)[C@H](CC(C)C)NC(=O)[C@@H](N)CCC(=O)O)C(C)C)C(=O)O [ZADH2] (H-ELPHSVNSKL-OH; N-terminus and C-terminus assumed)
> 100	> 100	> 100	CC(C)C[C@H](NC(=O)[C@H](CCCCN)NC(=O)[C@H](CO)NC(=O)[C@H](CCC(=O)O)NC(=O)[C@H](CO)NC(=O)[C@@H](NC(=O)[C@H](CCC(N)=O)NC(=O)[C@@H]1CCCN1C(=O)[C@H](CCCCN)NC(=O)[C@@H](N)C(C)C)C(C)C)C(=O)O [PTE1] (H-VKPQVSESKL-OH; N-terminus and C-terminus assumed)
> 100	> 100	116	CC[C@H](C)[C@H](NC(=O)[C@@H](N)CC(N)=O)C(=O)NCC(=O)N[C@@H](CO)C(=O)N[C@@H](CCC(N)=O)C(=O)NCC(=O)N[C@@H](CO)C(=O)N[C@H](C(=O)N[C@@H](CC(=O)O)C(=O)N[C@@H](Cc1ccc(O)cc1)C(=O)O)[C@@H](C)O [TRIM21] (H-NIGSQGSTDY-OH)
> 100	> 100	–	CC(C)C[C@H](NC(=O)[C@@H](NC(=O)[C@@H](NC(=O)[C@H](CO)NC(=O)[C@@H]1CCCN1C(=O)[C@H](CC(C)C)NC(=O)[C@H](CCCCN)NC(=O)[C@H](CCCNC(=N)N)NC(=O)[C@@H](NC(=O)[C@@H](N)CCCNC(=N)N)C(C)C)[C@@H](C)O)[C@@H](C)O)C(=O)O [RPS6KA1] (H-RVRKLPSTTL-OH)
> 100	> 100	–	CC[C@H](C)[C@H](NC(=O)[C@H](CCC(N)=O)NC(=O)[C@@H](NC(=O)[C@@H](NC(=O)[C@H](Cc1c[nH]cn1)NC(=O)[C@H](CCC(N)=O)NC(=O)CNC(=O)[C@@H]1CCCN1C(=O)[C@H](C)NC(=O)[C@@H]1CCCN1)[C@@H](C)O)[C@@H](C)O)C(=O)O [STK16] (H-PAPGQHTTQI-OH)
62.7	> 100	–	CSCC[C@H](NC(=O)CN)C(=O)N[C@@H](CCCCN)C(=O)N[C@@H](CCCNC(=N)N)C(=O)N[C@@H](CC(C)C)C(=O)N[C@H](C(=O)N[C@@H](CO)C(=O)N[C@H](C(=O)N[C@@H](CCCNC(=N)N)C(=O)N[C@@H](CC(C)C)C(=O)O)[C@@H](C)O)[C@@H](C)O [RPS6KA2] (H-GMKRLTSTRL-OH)
